Tests used:
[1] = Simulation of flavone C-glycoside copigment effect with anthocyanin (malvin): absorption spectrum; type: physicochemical; conditions: for Absorption maximum of malvin solution upon addition of flavone C-glycoside (λmax): flavone C-glycoside added at 10-equivalent molar concentration to 0.5 mM malvin
Description: An anthocyanin (malvin) and flavone C-glycoside were prepared to simulate the copigment effect of the flavone C-glycoside on malvin. The malvin (malvidin 3,5-diglucoside) and flavone C-glycosides (isovitexin (apigenin 6-C-glucoside), isoorientin (luteolin 6-C-glucoside) and swertisin (genkwanin 6-C-glucoside) used in the experiments were purchased from Nacalai Tesque, Inc. Embigenin (7,4′-dimethoxyisovitexin) was prepared by artificial organic synthesis from isovitexin. Each flavone C-glycoside (isovitexin, isoorientin, swertisin or embigenin) was added to the malvin at 10-equivalent molar concentration in a buffering solution at pH 5.0, and the absorption spectrum was measured. The malvin concentration was 0.5 mM.

DN144 (IjFn-4′OMT) = test: Enzyme activity measurement with crude protein solution extract from E. coli expressing DN144; type: biochemical, fringed iris (Iris japonica); conditions: flavone substrate; for Produced compound: SAM, 30 minutes at 30° C., HPLC detection at 330 nm
Description: With DN144 as a candidate protein having activity of transferring a methyl group to the 4′-position hydroxyl group of flavone C-glycoside, and using pET15b (Novagen), an E. coli expression vector pSPB7942 containing the full-length of DN144 was constructed according to the manufacturer's recommended protocol.
Vector pSPB7942 was introduced into E. coli BL21(DE3) (New England Biolabs Japan Inc) by the manufacturer's recommended protocol, to obtain E. coli transformants. The E. coli were cultured using an Overnight Express Autoinduction System 1 (Novagen), according to the manufacturer's recommended protocol. The E. coli transformants were cultured at 37° C. (approximately 4 hours) with 2 mL of prepared culture solution, to an OD600 value of 0.5. The E. coli solution was added as a preculturing solution to 50 mL of culture solution, and main culturing was carried out for two nights at 16° C. The E. coli solution cultured for two nights was centrifuged (3,000 rpm, 4° C., 15 minutes), and the collected cells were suspended in sonic buffer (composition: 40 mM KPB (pH7.5), 1 mM dithiothreitol. 50 μM amidinophenylmethanesulfonyl fluoride hydrochloride, 500 μM ethylenediaminetetraacetic acid. 2 mM MgCl2, 1 μM S-adenosylmethionine (SAM)). A 5 mL portion of sonic buffer was added for each 1 g of E. coli. The suspended E. coli cells were crushed by ultrasonic treatment and then centrifuged (15,000 rpm, 4° C., 10 minutes), and the supernatant was recovered. The supernatant was used as a crude protein solution extract from E. coli expressing DN144. A TOMY MX-307 (rotor: AR015-24) was used for centrifugal separation (Tomy Seiko Co., Ltd.).
The substrates used for activity measurement were apigenin, apigenin 7-glucoside, isovitexin 2″-rhamnoside, saponarin (isovitexin 4′-glucoside), swertisin, luteolin, luteolin 7-glucoside, isoorientin, swertiajapanin (isoorientin 7-methyl ether), delphinidin 3-glucoside, delphinidin 3,5-diglucoside and malvidin 3,5-diglucoside. A mixture of 8 μL of each 1 mM substrate (50% acetonitrile aqueous solution containing 0.1% TFA), 20 μL of 10 mM SAM, 10 μL of 1 M KPB (pH 7.5) and 20 μL of 10 mM MgCl2 adjusted to 58 μL was kept at 30° C. for 10 minutes, and then 42 μL of crude protein solution extract from DN144-expressing E. coli was added for enzyme reaction (30 minutes at 30° C.). Next, 100 μL of stop buffer (aqueous 90% acetonitrile solution containing TFA) was added to stop the enzyme reaction, and the enzyme reaction solution was analyzed by high-performance liquid chromatography (LC-2030C by Shimadzu Corp.). Detection was at 330 nm using a Shimadzu PDA SPD-M20A as the detector. The column used as a Shim-Pack FC-ODS 150 mm*4.6 min (Shimadzu GLC). Elution was performed using solution A (0.1% TFA aqueous solution) and solution B (aqueous 90% acetonitrile solution containing 0.1% TFA). The elution was with a 20-minute linear concentration Gradient from a 9:1 mixture to a 8:2 mixture, a 15-minute linear concentration gradient from a 8:2. mixture to a 2:8 mixture and a 5-minute linear concentration gradient from a 2:8 mixture to a 0:10 mixture, followed by elution with a 0:10 mixture for 1 minute. The flow rate was 0.6 mL/min. As a control, the same experiment was carried out using a crude protein solution extract from E. coli in which pET15b vector without the insert had been introduced. As a result, compounds were detected in the enzyme reaction solutions obtained by reacting the 10 different flavones with the crude protein solution extract from the DN144-expressing E. coli. […] With reaction of the 3 different anthocyanins, no peaks were detected other than for the substrates in the enzyme reaction solution. When enzyme reaction was conducted using an anthocyanin substrate, the enzyme reaction conditions were 30° C., 15 minutes, and an aqueous 90% acetonitrile solution containing 0.1% TFA and 0.24 N hydrochloric acid was used as the stop buffer. […]

Row | Compound | Absorption maximum of malvin solution upon addition of flavone C-glycoside (λmax) ([1]; buffering solution pH 5.0) [nm] | Methyltransferase activity of DN144 for the substrate (DN144 (IjFn-4′OMT)) | other results
1 | COc1ccc(-c2cc(=O)c3c(O)c([C@@H]4O[C@H](CO)[C@@H](O)[C@H](O)[C@H]4O)c(OC)cc3o2)cc1 [Embigenin, 7,4′-dimethoxyisovitexin] | 581 | – | Copigment effect with respect to malvin (absorbance increase, shift of absorption maximum toward long wavelength end) ([1]; 10-equivalent flavone C-glycoside, 0.5 mM malvin, pH 5.0): highest copigment effect
2 | O=c1cc(-c2ccc(O)c(O)c2)oc2cc(O)c([C@@H]3O[C@H](CO)[C@@H](O)[C@H](O)[C@H]3O)c(O)c12 [Isoorientin, luteolin 6-C-glucoside] | 575 | strong methyltransferase activity | –
3 | O=c1cc(-c2ccc(O)cc2)oc2cc(O)c([C@@H]3O[C@H](CO)[C@@H](O)[C@H](O)[C@H]3O)c(O)c12 [Isovitexin, apigenin 6-C-glucoside] | 578 | – | Produced compound (DN144 (IjFn-4′OMT)): Isocytisoside; Produced compound (DN144 (IjFn-4′OMT); listed as isovitexin): conversion to isocytisoside was confirmed
4 | COc1cc(-c2[o+]c3cc(O)cc(O[C@@H]4O[C@H](CO)[C@@H](O)[C@H](O)[C@H]4O)c3cc2O[C@@H]2O[C@H](CO)[C@@H](O)[C@H](O)[C@H]2O)cc(OC)c1O [Malvin, malvidin 3,5-diglucoside] | – | – | Absorption maximum of malvin solution (λmax) ([1]; malvin alone, 0.5 mM, buffering solution pH 5.0): 529 nm
5 | COc1cc2oc(-c3ccc(O)c(O)c3)cc(=O)c2c(O)c1[C@@H]1O[C@H](CO)[C@@H](O)[C@H](O)[C@H]1O [Swertiajaponin, luteolin 7-methyl-6-C-glucoside] | – | strong methyltransferase activity | –
6 | COc1cc2oc(-c3ccc(O)cc3)cc(=O)c2c(O)c1[C@@H]1O[C@H](CO)[C@@H](O)[C@H](O)[C@H]1O [Swertisin, genkwanin 6-C-glucoside] | 579 | – | Produced compound (DN144 (IjFn-4′OMT)): Embigenin; Produced compound (DN144 (IjFn-4′OMT); listed as swertisin): conversion to embigenin was confirmed
7 | isovitexin 2″-rhamnoside | – | strong methyltransferase activity | –

Reference: patent publication US20240010998A1, “FLAVONE 4'-O-METHYLTRANSFERASE GENE AND USE FOR SAME” (SUNTORY HOLDINGS LIMITED, priority 2020, published 2024)
